Patent US12590118B2, “Salt and crystal form of steroid derivative regulator” (Shanghai Hansoh Biomedical Co., Ltd., priority 2019, dated 2026)

What was measured:
GABA-A receptor = experiment: 35S-TBPS binding assay (GABAA receptor binding ability assay); design: species or system Sprague-Dawley rat; conditions: rat cerebral cortex cell membrane, 5 μM GABA, 2 nM 35S-TBPS; read-out: IC50 on inhibiting the TBPS binding activity, 35S-TBPS bindng assay
Method: 1. The cerebral cortex of male Sprague-Dawley rat was isolated.
2. A pre-chilled 0.32 M sucrose solution (one tablet of protease inhibitor was added per 100 mL) was added to the cerebral cortex (the volume of sucrose solution was 10 times the volume of the cerebral cortex). The mixture was crushed with a 50 mL glass tissue homogenizer in batches and mixed well.
3. The mixture was centrifuged at 1,500 g, 4° C. for 10 minutes, and the supernatant was collected.
4. The mixture was centrifuged at 20,000 g, 4° C. for 30 minutes, and the supernatant was discarded.
5. The precipitate was resuspended with the pre-chilled phosphate buffer saline (PBS) (one tablet of protease inhibitor was added per 100 mL). An average of 4 mL of PBS was added per rat, and the mixture was mixed well with a glass tissue homogenizer.
6. The mixture was centrifuged at 10,000 g, 4° C. for 10 minutes, and the supernatant was discarded.
7. Steps 5 and 6 were repeated three times.
8. Finally, the precipitate was resuspended with 4 volumes of PBS. The resulting solution was dispensed, frozen in liquid nitrogen, and stored at −80° C.
9. The protein concentration was measured by the bicinchoninic acid (BCA) method.
1. 230 μL of PBS was added to each well of a well plate with 1.1 mL volume.
2. 60 μL of the cerebral cortex cell membrane (5 μg/μL) solution was added to each well, and the mixture was mixed well.
3. The test compound (3 μL per well) was added, and the plate was incubated at 25° C. for 5 minutes. The DMSO concentration was 1%. The initial compound concentration was […], and a
3-fold dilution in gradient was carried out to obtain a total of 8 gradients and 2 replicates. 1% DMSO was used as a negative control, and 10 μM P026-2 was used as a positive control.
4. GABA was added at a final concentration of 5 μM, and incubated at 25° C. for 5 minutes. 1 mM GABA solution was formulated, and 1.5 μL of the solution was added to each well.
5. 35S-TBPS was added at a final concentration of 2 nM. The concentration of isotope mother solution was 9.7 μM. After dilution with PBS for 100 times, 6 μL of the diluted isotope solution was added to each well.
6. The plate was incubated at 4° C. for 20 hours.
7. The FilterMate GF/C plate was pre-treated with 0.5% PEI, and incubated at 4° C. for 1 hour.
8. The FilterMate GF/C plate was washed with Universal Harvester twice, 50 mL PBS each time.
9. The reaction solution was transferred to the GF/C plate, and each well was washed 4 times with 900 μL of PBS.
10. The washed GF/C plate was placed at 55° C. and dried for 10 minutes.
11. 40 μL of scintillation solution was added to each well, and the CPM value was read with TopCount.
In the experiment, the CPM (counts per minute) value was read with TopCount. According to the readings of the High control (DMSO) and the Low control (10 μM of the positive compound) experimental groups, the % inhibition was calculated based on the following formula: % Inhibition=100×(CPMHigh control−CPMsample)/(CPMHigh control−CPMLow control)
The IC50 of the compound was calculated according to the following 4-parameter nonlinear logic formula: Y=Bottom+(Top−Bottom)/(1+10^((Log IC50−X)*HillSlope)),
wherein: • X represents the log of compound concentration, • Y represents the % Inhibition.
The effect of the compound of the present invention on the TBPS binding activity was determined by the above test, and the measured IC50 values are shown in Table 5.

ICR mice = experiment: Forced swimming model in mice; assay type: in vivo; conditions: for Mean (immobility, %): floating time/240 s; for Mean (immobility, s): latter four minutes of 6 min swim; for immobility time during the latter four minutes compared with that of the model group: forced swimming, ICR mice
Method: The antidepressant effect of the compound was evaluated by the forced swimming model in mice.
Compounds of Examples 1 to 3, Example 9, Example 40, Example 41, Examples 48 to 52, Example 90 and Example 98 of the present invention, prepared by the applicant.
Male ICR mice (25-35 g) were adapted in the experiment environment for 3 days before the forced swimming test.
According to the experiment design, the mice were randomly grouped on the day before the experiment according to body weight, with 12 mice in each group. Before the test, the compounds of each example were administered intragastrically according to the Tmax thereof in the brain in mice pharmacokinetic experiment.
Respectively: • 1) Model group (0.5% CMC-Na-1% Tween 80 solution, p.o., 10 mL/kg); • 2) Compounds of Examples 1 to 3, Example 40, Example 41, Examples 48 to 51, Example 90 and Example 98 (10 mg/kg, p.o., 10 mL/kg); Example 9 and Example 52 (5 mg/kg, p.o., 5 mL/kg).
When being administered, the compounds of each example were suspended in 0.5% CMC-Na+1% Tween 80 solution to the desired concentration.
0.5-1 hour after administration, ICR mice were placed in a forced swimming device (transparent glass drum (water depth 18 cm, water temperature 25-26° C.), one mouse per tank) and forced to swim for 6 minutes. The forced swimming device recorded the floating time of the ICR mice during the entire 6 minutes, and the data of the latter four minutes were used for data analysis. The mice were taken out immediately after the swimming experiment, wiped dry and put back in their original cages.
Note: The criterion for determining the immobility time is that the mouse stops struggling in water and floats, and there are only slight limb movements to keep the head floating on the water.
3.4 Data Analysis Floating time percentage=100*floating time/240 s.

[1] = target: T1, human GABAA receptor α1, β2 and γ2 subunit (HEK293T cell line) (Homo sapiens, UniProt P14867+P47870); experiment: Positive regulatory effect on GABAA receptor, manual patch clamp; assay type: cell-based; conditions: whole-cell current, 1 μM GABA
T1 construct: expressed in transfected cells
T1 sequence (P14867 28-456): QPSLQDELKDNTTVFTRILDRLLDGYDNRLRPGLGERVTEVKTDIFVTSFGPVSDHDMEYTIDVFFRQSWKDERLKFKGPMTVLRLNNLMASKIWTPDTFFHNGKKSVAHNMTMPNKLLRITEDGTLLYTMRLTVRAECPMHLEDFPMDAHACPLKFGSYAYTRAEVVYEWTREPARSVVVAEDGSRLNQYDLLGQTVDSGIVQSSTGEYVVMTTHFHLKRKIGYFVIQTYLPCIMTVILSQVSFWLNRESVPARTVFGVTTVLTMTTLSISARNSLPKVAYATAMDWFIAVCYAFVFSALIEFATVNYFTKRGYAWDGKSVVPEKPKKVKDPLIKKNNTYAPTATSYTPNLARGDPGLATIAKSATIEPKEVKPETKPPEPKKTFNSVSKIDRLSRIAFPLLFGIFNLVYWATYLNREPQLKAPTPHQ
T1 sequence (P47870 25-512 limits assumed): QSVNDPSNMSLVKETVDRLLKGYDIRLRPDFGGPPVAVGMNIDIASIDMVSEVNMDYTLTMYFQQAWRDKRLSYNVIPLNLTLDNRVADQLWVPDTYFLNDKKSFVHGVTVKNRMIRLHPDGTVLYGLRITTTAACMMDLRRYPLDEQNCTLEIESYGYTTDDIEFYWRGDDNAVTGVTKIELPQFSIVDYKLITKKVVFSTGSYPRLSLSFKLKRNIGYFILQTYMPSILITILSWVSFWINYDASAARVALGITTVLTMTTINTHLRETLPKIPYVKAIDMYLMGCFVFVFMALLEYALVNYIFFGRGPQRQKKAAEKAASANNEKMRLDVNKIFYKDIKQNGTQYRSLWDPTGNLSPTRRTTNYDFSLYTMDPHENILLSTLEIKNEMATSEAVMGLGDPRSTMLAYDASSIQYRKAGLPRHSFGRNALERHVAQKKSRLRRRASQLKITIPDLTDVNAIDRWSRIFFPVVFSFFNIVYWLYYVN
T1 sequence (P18507 40-475 partner): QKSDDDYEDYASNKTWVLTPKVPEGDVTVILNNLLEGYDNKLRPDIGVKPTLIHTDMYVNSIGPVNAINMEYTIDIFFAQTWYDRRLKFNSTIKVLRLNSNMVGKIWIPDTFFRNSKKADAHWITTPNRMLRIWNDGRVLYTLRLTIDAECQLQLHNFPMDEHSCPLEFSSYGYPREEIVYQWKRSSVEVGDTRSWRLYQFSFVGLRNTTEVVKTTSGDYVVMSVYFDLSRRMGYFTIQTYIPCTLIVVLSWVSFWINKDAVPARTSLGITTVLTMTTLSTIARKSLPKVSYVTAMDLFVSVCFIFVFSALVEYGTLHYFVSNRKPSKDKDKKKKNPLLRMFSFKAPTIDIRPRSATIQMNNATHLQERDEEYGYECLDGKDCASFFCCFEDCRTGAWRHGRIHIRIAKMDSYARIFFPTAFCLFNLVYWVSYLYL
Method: The objective of this test example is to determine the positive regulatory effect of the compound on GABAA receptor by the electrophysiological manual patch clamp method.
Manual patch clamp system HEKA EPC10 USB signal amplifier and digital conversion system (purchased from HEKA Electronics, Germany), centrifuge (Eppendorf, etc.), carbon dioxide incubator (purchased from Thermo, etc.), biological safety cabinet (Thermo, etc.), pipette (purchased from Eppendorf, etc.).
The cells were grown in a culture dish with DMEM medium (purchased from Invitrogen), and cultured in an incubator at 37° C. and 5% CO2. Before the electrophysiological experiment, the cells were transferred to a round glass slide placed in the culture dish, and grown in the same culture medium and under the same culture condition as above. The density of cells on each round glass slide should meet the requirement that most cells were independent and individual.
Each test compound was diluted in gradient with DMSO to obtain a stock solution, which was then diluted with extracellular fluid by 1,000-fold to obtain the final test concentration. The final concentration of DMSO in the compound solution with each concentration was 0.1%. The experiment used the manual patch clamp system HEKA EPC10 USB signal amplifier and digital conversion system for whole cell current recording. The round glass slide with HEK293T GABAA cells grown on the surface was taken out of the culture dish, and placed in the electrophysiological recording tank under the inverted microscope. The recording tank was continuously perfused with extracellular fluid. During the experiment, the whole-cell current recording technology was used to record the chloride current of the GABAA channel. 1 μM GABA was used to activate the chloride current of the GABAA channel of each cell as an initial control. 1 μM GABA acted on the cell through the drug perfusion system to induce the chloride current of the GABAA channel, the action time was about 3 to 5 seconds, and the current value was used as the initial control value. The test concentration of compound was perfused and incubated for 2 to 5 minutes. […] GABA solution (mixed with the test concentration of compound) was given to the cells to observe the enhancement effect of the test compound on the current induced by 1 μM GABA. When the cell state was stable, the test compound acted on the same cell from low to high concentration to record the enhancement effect of the induced current.
The experimental data was analyzed by HEKA Patchmaster, Microsoft Excel and the data analysis software provided by Graphpad Prism.

C[C@@]1(O)CC[C@H]2[C@H](CC[C@@H]3[C@@H]2CC[C@@]2(C)[C@H]3[C@@H]3C[C@@H]3[C@@H]2C(=O)Cn2cc(C#N)cn2)C1 [Example 1, 1-(2-((2R,4aS,4bR,6aS,7S,7aS,8aR,8bR,8cR,10aR)-2-hydroxy-2,6a-dimethyloctadecahydrocyclopropa[4,5]cyclopenta[1,2-a]phenanthren-7-yl)-2-oxoethyl)-1H-pyrazole-4-carbonitrile]
IC50 (GABA-A receptor): 24.3 nM | Mean (immobility, %) (ICR mice; dose 10 mpk p.o.): 54.26% | Mean (immobility, s) (ICR mice; dose 10 mpk p.o.): 130.22 s

C[C@@]1(O)CC[C@H]2[C@H](CC[C@@H]3[C@@H]2CC[C@@]2(C)[C@H]3[C@@H]3C[C@@H]3[C@@H]2C(=O)Cn2cc(C(F)(F)F)cn2)C1 [Example 3, 1-((2R,4aS,4bR,6aS,7S,7aS,8aR,8bR,8cR,10aR)-2-Hydroxy-2,6a-dimethyloctadecahydrocyclopropa[4,5]cyclopenta[1,2-a]phenanthren-7-yl)-2-(4-(trifluoromethyl)-1H-pyrazol-1-yl)ethan-1-one]
IC50 (GABA-A receptor): 13.5 nM | Mean (immobility, %) (ICR mice; dose 10 mpk p.o.): 59.93% | Mean (immobility, s) (ICR mice; dose 10 mpk p.o.): 143.81 s

C[C@@]1(O)CC[C@H]2[C@H](CC[C@@H]3[C@@H]2CC[C@]2(C)C(C(=O)Cn4cc(C#N)cn4)C[C@@H](C4CC4)[C@@H]32)C1 (stereo partly drawn) [Example 48, 1-(2-((3R,5R,8R,9R,10S,13S,14S,15S)-15-Cyclopropyl-3-hydroxy-3,13-dimethylhexadecahydro-1H-cyclopenta[a]phenanthren-17-yl)-2-oxoethyl)-1H-pyrazole-4-carbonitrile]
IC50 (GABA-A receptor): 7.5 nM | Mean (immobility, %) (ICR mice; dose 10 mpk p.o.): 55.92% | Mean (immobility, s) (ICR mice; dose 10 mpk p.o.): 134.21 s

C[C@@]1(O)CC[C@H]2[C@H](CC[C@@H]3[C@@H]2CC[C@@]2(C)[C@H]3[C@H](C3CC3)C[C@@H]2C(=O)Cn2ccnn2)C1 [Example 51, 1-((3R,5R,8R,9R,10S,13S,14S,15S,17S)-15-Cyclopropyl-3-hydroxy-3,13-dimethylhexadecahydro-1H-cyclopenta[a]phenanthren-17-yl)-2-(1H-1,2,3-triazol-1-yl)ethan-1-one]
Mean (immobility, %) (ICR mice; dose 5 mpk p.o.): 30.72% | Mean (immobility, s) (ICR mice; dose 5 mpk p.o.): 73.72 s

C[C@@H]1C[C@H](C(=O)Cn2ccc(C(F)(F)F)n2)[C@@]2(C)CC[C@H]3[C@@H](CC[C@@H]4C[C@](C)(O)CC[C@@H]43)[C@H]12 [Example 86, 1-((3R,5R,8R,9R,10S,13S,14S,15R,17S)-3-Hydroxy-3,13,15-trimethylhexadecahydro-1H-cyclopenta[a]phenanthren-17-yl)-2-(3-(trifluoromethyl)-1H-pyrazol-1-yl)ethan-1-one]
IC50 (GABA-A receptor): 8 nM | EC50 [1]: 74 nM

C[C@@H]1C[C@H](C(=O)Cn2cc(C#N)c(Cl)n2)[C@@]2(C)CC[C@H]3[C@@H](CC[C@@H]4C[C@](C)(O)CC[C@@H]43)[C@H]12 [Example 88, 3-Chloro-1-(2-((3R,5R,8R,9R,10S,13S,14S,15R,17S)-3-hydroxy-3,13,15-trimethylhexadecahydro-1H-cyclopenta[a]phenanthren-17-yl)-2-oxoethyl)-1H-pyrazole-4-carbonitrile]
IC50 (GABA-A receptor): 6.7 nM | EC50 [1]: 49 nM

C[C@@H]1C[C@H](C(=O)Cn2nc(C#N)cc2C#N)[C@@]2(C)CC[C@H]3[C@@H](CC[C@@H]4C[C@](C)(O)CC[C@@H]43)[C@H]12 [Example 89, 1-(2-((3R,5R,8R,9R,10S,13S,14S,15R,17S)-3-Hydroxy-3,13,15-trimethylhexadecahydro-1H-cyclopenta[a]phenanthren-17-yl)-2-oxoethyl)-1H-pyrazole-3,5-dicarbonitrile]
IC50 (GABA-A receptor): 4.3 nM | EC50 [1]: 43 nM

CC[C@@H]1C[C@H](C(=O)Cn2ccc(C#N)n2)[C@@]2(C)CC[C@H]3[C@@H](CC[C@@H]4C[C@](C)(O)CC[C@@H]43)[C@H]12 [Example 90, 1-(2-((3R,5R,8R,9R,10S,13S,14S,15R,17S)-15-Ethyl-3-hydroxy-3,13-dimethylhexadecahydro-1H-cyclopenta[a]phenanthren-17-yl)-2-oxoethyl)-1H-pyrazole-3-carbonitrile]
IC50 (GABA-A receptor): 16.2 nM | Mean (immobility, %) (ICR mice; dose 10 mpk p.o.): 36.92% | Mean (immobility, s) (ICR mice; dose 10 mpk p.o.): 88.61 s | immobility time during the latter four minutes compared with that of the model group (ICR mice): very significantly different

C[C@@]1(O)CC[C@H]2[C@H](CC[C@@H]3[C@@H]2CC[C@@]2(C)[C@H]3[C@H](C3CC3)C[C@@H]2C(=O)Cn2ncnn2)C1 [Example 98, 1-((3R,5R,8R,9R,10S,13S,14S,15S,17S)-15-Cyclopropyl-3-hydroxy-3,13-dimethylhexadecahydro-1H-cyclopenta[a]phenanthren-17-yl)-2-(2H-tetrazol-2-yl)ethan-1-one]
IC50 (GABA-A receptor): 21.4 nM | Mean (immobility, %) (ICR mice; dose 5 mpk p.o.): 33.54% | Mean (immobility, s) (ICR mice; dose 5 mpk p.o.): 80.5 s | immobility time during the latter four minutes compared with that of the model group (ICR mice): very significantly different
